Measured values from patent US12630557B2, “Salt and crystal form of pyrimidine compound, and preparation methods therefor” (Sichuan Kelun-Biotech Biopharmaceutical Co., Ltd., priority 2020, dated 2026).
≈ marks a conversion by molar mass, not a printed value.

Experiments:
[1] = Solubility determination at different pH; format: physicochemical; details: aqueous buffer
[2] = Stability experiment under conditions of influencing factors (high temperature / high humidity); format: physicochemical; details: for HPLC purity: area normalized purity
Description: Stability data of the crystal form A of the fumarate salt of the compound I under conditions of influencing factors is provided in Table 17 (HPLC purity is area normalized purity).

[3] = Dynamic water adsorption (DVS) experiment; format: physicochemical; details: 25° C.
Experimental: Device information: SMS (Surface Measurement Systems) Intrinsic
Experimental method: temperature: 25° C.; protective gas N2; maximum equilibration time: 120 min; RH range: 0%-90%-0%.

[4] = Pharmacokinetic study in mice; format: in vivo; details: female Balb/c mice, PO 1 mg/kg, plasma compound I
Experimental: Female Balb/c mice (6 mice) were orally administered with 1 mg/kg of the crystal form A of the fumarate salt of the compound I by gavage. The compound was first dissolved with 0.5% methylcellulose solution and ultrasonicated to ensure complete dissolution or uniform suspension of the compound. 30 min, 1 […], and 24 h after administration, 0.2 mL of blood (EDTA-K2 anticoagulated) was venously collected. The collected whole blood was temporarily stored in an ice box, and centrifuged for 10 min within 2 h to separate the plasma (4° C.). The collected plasma was stored in a refrigerator at -80° C. prior to testing. The blood concentration of the compound I was detected by LC-MS/MS, and the linear range was from 10 to 10000 ng/mL.

RET^M918T = RET^M918T (Homo sapiens, UniProt P07949, M918T); assay: HTRF KinEASE-TK RET enzyme inhibition; format: biochemical; details: RET^M918T 0.3 nM, ATP 15 μM; read-out: Inhibitory IC50 on RET enzyme
Sequence of RET^M918T (P07949 29-1114 M918T): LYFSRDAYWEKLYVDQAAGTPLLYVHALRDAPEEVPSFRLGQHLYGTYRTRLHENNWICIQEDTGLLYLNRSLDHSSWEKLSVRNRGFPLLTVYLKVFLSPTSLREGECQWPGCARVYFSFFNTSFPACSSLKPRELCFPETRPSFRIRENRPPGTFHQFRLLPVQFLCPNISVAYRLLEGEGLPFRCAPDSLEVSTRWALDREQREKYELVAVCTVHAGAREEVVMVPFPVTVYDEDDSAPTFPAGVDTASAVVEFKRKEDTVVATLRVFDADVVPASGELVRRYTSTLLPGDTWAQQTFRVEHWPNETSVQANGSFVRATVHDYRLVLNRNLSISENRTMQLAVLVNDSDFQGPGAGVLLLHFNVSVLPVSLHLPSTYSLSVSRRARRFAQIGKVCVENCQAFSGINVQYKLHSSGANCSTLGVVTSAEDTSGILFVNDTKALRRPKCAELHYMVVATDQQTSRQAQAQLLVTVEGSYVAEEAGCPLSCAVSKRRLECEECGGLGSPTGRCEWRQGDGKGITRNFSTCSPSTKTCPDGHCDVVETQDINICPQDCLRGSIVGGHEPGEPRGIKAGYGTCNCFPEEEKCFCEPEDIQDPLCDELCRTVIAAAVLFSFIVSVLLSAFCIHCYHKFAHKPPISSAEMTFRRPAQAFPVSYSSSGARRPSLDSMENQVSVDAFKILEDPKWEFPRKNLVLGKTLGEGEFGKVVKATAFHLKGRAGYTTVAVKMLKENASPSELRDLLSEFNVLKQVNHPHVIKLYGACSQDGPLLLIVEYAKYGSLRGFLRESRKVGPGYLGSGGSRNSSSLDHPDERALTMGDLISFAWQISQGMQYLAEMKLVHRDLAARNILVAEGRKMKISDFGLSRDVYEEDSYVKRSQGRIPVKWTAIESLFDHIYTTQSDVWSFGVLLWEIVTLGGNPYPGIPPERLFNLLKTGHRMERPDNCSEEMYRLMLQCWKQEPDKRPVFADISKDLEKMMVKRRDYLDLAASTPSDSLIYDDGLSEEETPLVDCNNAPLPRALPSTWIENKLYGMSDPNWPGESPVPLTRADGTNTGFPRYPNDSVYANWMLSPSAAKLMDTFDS
Experimental: (§1) The inhibitory effects of the crystal form A of the fumarate salt of the compound I on the activity of wild-type RET, mutant-type RET (RET^V804M RET^V804L, and RET^M918T), and fusion-type RET (CCDC6-RET and KIF5B-RET) were determined using HTRF KinEASE-TK (Cisbio) kit.
(§2) After pre-incubation of the above different types of RET enzymes and different concentrations of the test compounds (9 concentration points) at room temperature for 30 min, a substrate and adenosine triphosphate (ATP) were added to initiate the reaction. After incubation at room temperature for 40 min, TK antibody-cryptate and streptavidin-XL665 were added, and after incubation at room temperature for 60 min, the detection was performed.
(§3) With the solvent group (DMSO) as the negative control and the buffer group (without RET enzyme) as the blank control, the relative inhibitory activity percentages of the compound at different concentrations were computed as per the following equation: Relative inhibitory activity percentage=1−(compound group of different concentrations-blank control)/(negative control-blank control)*100%
(§4) The relative inhibitory activity percentages of the compound at different concentrations were plotted with respect to the compound concentrations, and the curve was fitted in accordance with a four-parameter model to compute the IC50 value as per the following equation: y=min+(max−min)/(1+(x/IC50)^(−Hillslope)) • where y is the relative inhibitory activity percentage, max and min are a maximum value of the fitted curve, and a minimum value of the fitted curve respectively, x is a logarithmic concentration of the compound, and Hillslope is a slope of the curve.

RET^V804L = RET^V804L (Homo sapiens, UniProt P07949, V804L); assay: HTRF KinEASE-TK RET enzyme inhibition; format: biochemical; details: RET^V804L 0.6 nM, ATP 10 μM; read-out: Inhibitory IC50 on RET enzyme
Sequence of RET^V804L (P07949 29-1114 V804L): as the sequence (P07949 29-1114 M918T) above, with V776L, T890M counted along it
Experimental: as §1, §2, §3, §4

CCDC6-RET = molecular target: T1, CCDC6-RET (Homo sapiens, UniProt P07949); assay: HTRF KinEASE-TK RET enzyme inhibition; format: biochemical; details: CCDC6-RET 0.3 nM, ATP 15 μM; read-out: Inhibitory IC50 on RET enzyme
T1 construct: the other entry of the earlier key: CCDC6 (Q16204, Coiled-coil domain-containing protein 6)
T1 sequence (P07949 with tags, fused parts or gaps): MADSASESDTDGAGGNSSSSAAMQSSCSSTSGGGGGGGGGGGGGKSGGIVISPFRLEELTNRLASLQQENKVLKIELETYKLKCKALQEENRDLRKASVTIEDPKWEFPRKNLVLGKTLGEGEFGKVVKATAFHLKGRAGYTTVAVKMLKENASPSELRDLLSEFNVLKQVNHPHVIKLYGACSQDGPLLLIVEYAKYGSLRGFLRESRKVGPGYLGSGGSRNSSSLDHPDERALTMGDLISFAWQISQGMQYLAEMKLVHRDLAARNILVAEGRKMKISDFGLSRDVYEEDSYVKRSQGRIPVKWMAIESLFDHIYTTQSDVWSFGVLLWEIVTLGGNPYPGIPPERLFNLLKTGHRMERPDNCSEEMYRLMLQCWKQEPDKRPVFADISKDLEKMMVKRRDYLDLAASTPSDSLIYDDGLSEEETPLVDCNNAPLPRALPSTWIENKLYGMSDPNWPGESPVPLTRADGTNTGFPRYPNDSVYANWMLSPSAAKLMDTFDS
Experimental: as §1, §2, §3, §4

wild-type RET = wild-type RET (Homo sapiens, UniProt P07949); assay: HTRF KinEASE-TK RET enzyme inhibition; format: biochemical; details: RET 0.2 nM, ATP 30 μM; read-out: Inhibitory IC50 on RET enzyme
Sequence of wild-type RET (P07949 29-1114): as the sequence (P07949 29-1114 M918T) above, with T890M counted along it
Experimental: as §1, §2, §3, §4

RET^V804M = RET^V804M (Homo sapiens, UniProt P07949, V804M); assay: HTRF KinEASE-TK RET enzyme inhibition; format: biochemical; details: RET^V804M 0.6 nM, ATP 15 μM; read-out: Inhibitory IC50 on RET enzyme
Sequence of RET^V804M (P07949 29-1114 V804M): as the sequence (P07949 29-1114 M918T) above, with V776M, T890M counted along it
Experimental: as §1, §2, §3, §4

[5] = High humidity 25° C. ± 2° C./92.5% RH ± 5% RH, Day 30
[6] = High temperature 60° C. ± 2° C., Day 30

Compound: Cc1cc(Nc2cc(C)[nH]n2)nc(-c2ccc(N3CC4CC(C3)N4Cc3ccc(-n4cc(F)cn4)nc3)nc2)n1
- solubility ([1]; Buffer pH 1.0): ≥ 12200 µg/mL
- solubility ([1]; Buffer pH 2.0): 3500 µg/mL (≈ 6.51 mM)
- solubility ([1]; Buffer pH 3.0): 2500 µg/mL (≈ 4.65 mM)
- Appearance ([2]; Day 0): White solid
- HPLC purity ([2]; Day 0): 99.6%
- Appearance [2, 5]: White solid
- Crystal form [2, 5]: form A
- HPLC purity [2, 5]: 99.5%
- Appearance [2, 6]: White solid
- Crystal form [2, 6]: form A
- HPLC purity [2, 6]: 99.3%
- crystal form before and after the DVS test ([3]; RH range 0%-90%-0%): remained changed
- desorption of adsorbed water (DVS) ([3]; humidity decreased from 90% to 0%): fully desorbed
- water absorbed (DVS) ([3]; humidity increased to 90%): about 0.7%
- Cl [4]: 1.47 mL/min/kg
- Vd [4]: 0.356 L/kg
- AUC(0-inf) ([4]; mouse): 11400 ng·h/mL
- AUC(0-t) ([4]; mouse): 11400 ng·h/mL
- Cmax ([4]; mouse): 2060 ng/mL
- Tmax ([4]; mouse): 1 h
- half-life ([4]; mouse): 2.81 h
- IC50 (RET^M918T): 2.23 ± 0.64 nM
- IC50 (RET^V804L): 1.59 ± 0.51 nM
- IC50 (CCDC6-RET): 2.48 ± 1 nM
- IC50 (wild-type RET): 0.56 ± 0.09 nM
- IC50 (RET^V804M): 0.6 ± 0.2 nM
